From US20260091068A1, “METHODS FOR TREATING AND PREVENTING DISEASES” (priority 2017, published 2026)

Assays:
[1] = system: bacteriophages from swabs of hands, masks and work surfaces; assay: Bacterial DNA in blood (16S RT-PCR) after water with phages from treated objects and surfaces (Example 5); type: in vivo; conditions: average of 3 experiments
Protocol: Fourteen days after including any product enriched with bacteriophage mixture into the mice diet, the mice blood was aseptically taken and bacterial DNA content in the bloodstream was evaluated. Increased DNA content in blood indicates an increase of intestinal permeability reflecting increased translocation of microorganisms from the gastro-intestinal tract into the systemic circulation. (See Deitch E. A., et al. Effect of hemorrhagic shock on bacterial translocation, intestinal morphology, and intestinal permeability in conventional and antibiotic-decontaminated rats. Critical care medicine 18.5 (1990), 529-536). DNA was isolated with a kit for the isolation of nucleic acids DNAQamp Qiagen. Quantitative determination of DNA was carried out by RT-PCR using universal bacterial primers for 16S rRNA (upb2 with a universal FAM-probe for bacteria: (5FAM) aat acg ttc ccg ggt ctt gta cac acc gcc cgt cac act att (3′RTQ1) (SEQ ID NO: 6) and DG74 5′aac tgg agg aag gtg ggg at 3′ (SEQ ID NO: 7)) on Bio-Rad CFX96 amplifier. Reaction conditions: 95° C.—5 min. 45 cycles 95° C.—15 sec, 60° C.—30 sec, fluorescence reading.
Bacteriophages were obtained from the swabs from hands and masks of medical staff and work surfaces in surgical clinics. The hands, masks and surfaces were subjected to various kinds of treatments in order to reduce the amount of phages on them. After the treatment, phages were isolated by the Gratia's method (Kropinski et al. “Enumeration of bacteriophages by double agar overlay plaque assay.” Bacteriophages: Methods and Protocols, Volume 1: Isolation, Characterization, and Interactions, Humana Press, 2009, vol. 501, 69-76). Test material (swabs) was filtered through 0.45 μm Millipore membrane filters. The resulting filtrate was incubated at 60° C. for 60 minutes to inactivate bacteria and was added to 100 μL of water. The resulting solutions were given to animals with water, and the development of an increased intestinal permeability was evaluated as described in Example 4, above. The animals were divided into the following treatment groups:
Group “PHG”: water with the addition of bacteriophages obtained from objects and surfaces treated with a 0.1% (1000 mg/L) polyhexamethylene guanidine derivative preparation. The polyhexamethylene guanidine preparation used in this treatment was prepared by condensation polymerization of hexamethylenediamine with guanidine salt and hydrazine hydrate, as described in U.S. Provisional Pat. Appl. No. 62/510,446, U.S. Pat. No. 8,993,712, U.S. Pat. Appl. Pub. No. 2017/0013838 and Int. Pat. Appl. Pub. No. WO2016/118043.
Group “Photocatalyst”: water with the addition of bacteriophages obtained from objects and surfaces treated with TiO2 and activated by ultraviolet radiation. […]

hairless mice = assay: General skin elasticity after 36 weeks of water application (Example 7); type: in vivo; conditions: vs untreated left part of the back
Protocol: In the experiment, hairless mice, 5 males and 5 females, (C57BL/6 albino/hairless, The Jackson Laboratories) of both sexes were used. Starting from 4 weeks of age, animals were daily treated with tap water or mineral water from artesian source, the water applied on the right half of the back. After 36 weeks, skin condition parameters were evaluated (SoftPlusCPU (Callegaris.p.a.)) in the application area, compared with the untreated left part of the back. Animals were divided into the following treatment groups:
Group “Filtration”: water filtered through 0.22 μm Millipore membrane filters.
Group “Electron”: water treated with an electron flow.
Group “Prototype”: water treated with potassium nitrate.

[2] = system: bacteriophages isolated from the feces of obese mice; assay: Body weight after 21 weeks of drinking water with phages from obese mice (Example 6); type: in vivo; conditions: treated drinking water with phages from obese mice; standard diet
Protocol: To assess a possibility of preventing changes in the GI microbiota leading to obesity by limiting bacteriophage entry from the environment, bacteriophages were isolated from the feces of Group #1 mice in which obesity was modeled. The obtained phages were added to drinking water of mice (age 12 weeks) from Group #2 for 21 weeks. The diet of the animals remained standard, i.e., not a high fat diet. The mice in Group #2 were divided into the following treatment groups:
Group “Filtration”: water with the addition of bacteriophages, filtered through 0.45 μm Millipore membrane filters.
Group “Pascalization”: water with the addition of bacteriophages, treated with high pressure (340 MPa).
Group “Prototype”: water with the addition of bacteriophages, treated with potassium nitrate.

[3] = system: bacteriophages isolated from waste water; assay: Bacterial DNA in blood (16S RT-PCR) after diet with phage-enriched, treated products (Example 4); type: in vivo, Wistar rats; conditions: blood after 14 days, average of 3 experiments
Protocol: As a source for the isolation of bacteriophages, waste water from canalization was used. The phages were isolated by Gratia's method (Kropinski et al. “Enumeration of bacteriophages by double agar overlay plaque assay.” Bacteriophages: Methods and Protocols, Volume 1: Isolation, Characterization, and Interactions, Humana Press, 2009, vol. 501, 69-76). Test material (waste water) was filtered through 0.45 μm Millipore membrane filters. The resulting filtrate was incubated at 60° C. for 60 minutes to inactivate bacteria and was added to water or products (e.g., milk, yogurt, curd, cheese, minced meat, minced chicken, fish, fruit mix, vegetable mixture) in 100 μL volume. The resulting food products enriched with phages were included in the mice diet. […]
Fourteen days after including any product enriched with bacteriophage mixture into the mice diet, the mice blood was aseptically taken and bacterial DNA content in the bloodstream was evaluated. […] Quantitative determination of DNA was carried out by RT-PCR using universal bacterial primers for 16S rRNA (upb2 with a universal FAM-probe for bacteria: (5FAM) aat acg ttc ccg ggt ctt gta cac acc gcc cgt cac act att (3′RTQ1) (SEQ ID NO: 6) and DG74 5′aac tgg agg aag gtg ggg at 3′ (SEQ ID NO: 7)) on Bio-Rad CFX96 amplifier. […] 45 cycles 95° C.—15 sec, 60° C.—30 sec, fluorescence reading.

| SMILES | Number of cycles during which bacterial DNA appears (Cq) [1] [cycles] | Change in parameter of general skin elasticity (hairless mice; Tap water) [%] | Change in parameter of general skin elasticity (hairless mice; Well water) [%] | Animal body weight after 21 weeks [2] [g] | Number of cycles during which bacterial DNA appears (Cq) ([3]; phages added to cheese) [cycles] | Number of cycles during which bacterial DNA appears (Cq) ([3]; phages added to water) [cycles] |
| --- | --- | --- | --- | --- | --- | --- |
| [Cu+2] [Metals, Cu^2+] | 29.51 |  |  |  |  |  |
| O=[O+][O-] [Ozone, ozone] | 27.74 |  |  |  |  |  |
| OO [Peroxide, H2O2] | 31.65 |  |  |  |  |  |
| O=[N+]([O-])[O-].[K+] [Prototype, potassium nitrate] | 17.92 | −42.9 | −41.4 | 46 | 19.79 | 17.28 |
